Experimental data taken from PubChem BioAssay (NCI).
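The compound was tested at five concentrations on cells cultured in 96-well plates, with a 48-hour exposure period. GI50: concentration for 50% inhibition of growth. TGI: concentration producing complete growth inhibition.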

Each molecule was assayed on RPMI-8226 leukemia (assay: DTP human tumour cell line panel, 48 h).
For O=C(NC1CCCCC1)c1ccc(Nc2ncnc3c2cnn3-c2ccccc2)cc1, the GI50 was > 100 µM and the TGI was > 100 µM. In the case of CCc1nc(Cl)c(Cl)c(Cl)n1, the TGI is reported as > 100 µM. C=CCn1c(SCC(=O)Nc2ccc(C(=O)/C=C/c3cc(OC)c(OC)c(OC)c3)cc2)nnc1-c1ccc(OC)cc1 was tested, and the GI50 was 0.202 µM and the TGI was 0.68 µM. For COc1ccc(-c2ccc(NNC(=O)c3ccc(F)cc3)nn2)cc1OC, the GI50 was 35.3 µM and the TGI was > 100 µM. With O=C(N/N=C/c1ccc(O)cc1O)c1cccnc1 the GI50 was 4.13 µM and the TGI was > 100 µM. With O=C(NNc1cnccn1)c1nc2cc(F)ccc2n2cccc12 the GI50 was 0.518 µM and the TGI was > 100 µM. NCCCOc1cc2ccccc2cc1C(=O)NCCCOc1cc2ccccc2cc1C(=O)Nc1ccc(Cl)cc1O showed a GI50 of 0.578 µM and a TGI of 7.09 µM. Molecule NC(N)=N/N=C(\N=Nc1ccccc1)c1ccc(Cl)cc1 has a GI50 of 3.21 µM and a TGI of 12 µM. For Cc1cc(NCCCCNc2ccnc3cc(Cl)ccc23)nc(Nc2ccc(C(=O)N3CCCCC3)cc2)n1, the GI50 was 0.239 µM and the TGI was 1.04 µM. In the case of c1ccc2c(c1)c1ccccc1c1ccccc21, the GI50 is reported as > 100 µM and the TGI is reported as > 100 µM. For Cc1c2c(C(N)=O)nccc2c(C)c2c1c1ccccc1n2Cc1ccccc1, the TGI was 61.2 µM.

Each molecule was assayed on HOP-92 NSCLC (assay: DTP human tumour cell line panel, 48 h).
In the case of COc1ccc(-c2nn(-c3cccc(Cl)c3)cc2-c2nc(N)[nH]c(=O)c2C#N)cc1, the GI50 is reported as 1.65 µM and the TGI is reported as 12.2 µM. Molecule COc1cc2c3c(n(CCCN(CCO)CCO)c(=O)c2cc1OC)-c1cc2c(cc1C3=O)OCO2 has a TGI of 4.18 µM. For CNCCn1c(=O)c2cc(OC)c(OC)cc2c2cnc3cc4c(cc3c21)OCO4, the GI50 was < 0.0149 µM and the TGI was 0.518 µM. With O=C(CCN1CCOCC1)Nc1cccc(-n2cc(-c3ccncc3)c(-c3ccc(Cl)c(O)c3)n2)c1 the GI50 was 2.06 µM and the TGI was 14 µM. Molecule C=C(C)[C@@H]1CC[C@]2(C)[C@H](CC[C@@H]3[C@@H]([C@@](C)(O)CCC=C(C)C)CC[C@]32C)[C@@]1(C)CCC(=O)O has a GI50 of 12.7 µM and a TGI of 27.2 µM. With c1ccc(NCCSc2nc3ccccc3s2)cc1 the TGI was > 100 µM. Molecule Cc1ccc2occ/c(=N\Nc3ccccc3)c2c1 has a TGI of 97.4 µM. With CC(=O)NC1CONC1=O (stereo not given) the TGI was > 100 µM. Work on Oc1ccc(N=Nc2nccs2)c(O)c1 yielded a GI50 of 3.34 µM and a TGI of 24.7 µM. Work on COc1ccc2c(c1)C(C)Cc1c(ncnc1-n1cnc3ccccc31)N2C (stereo not given) yielded a GI50 of 0.441 µM and a TGI of 8.23 µM. Molecule COc1ccc(-c2noc(N)c2-c2cc(OC)c3c(c2)OCO3)cc1 has a GI50 of 2.47 µM and a TGI of 76.8 µM. Work on NCCCn1c2c(c3ccccc3c1=O)C(=O)c1ccccc1-2 yielded a GI50 of 2.6 µM and a TGI of 19.1 µM. Molecule O=C1c2ccccc2C(=O)c2c(NCCN=Cc3ccccc3O)cccc21 has a TGI of 0.0676 µM. In the case of Oc1ccc(/C=C/c2cc(O)cc3c2C(c2cc(O)cc(O)c2)C(c2ccc(O)c(O)c2)O3)cc1 (stereo not given), the TGI is reported as > 100 µM. CC1(C)N=C(N)N=C(N)N1c1cccc(OCCOc2cccc([N+](=O)[O-])c2)c1 was tested, and the GI50 was 3.51 µM and the TGI was 73.5 µM. O=C(NC1CCCCC1)c1ccc(Nc2ncnc3c2cnn3-c2ccccc2)cc1 showed a GI50 of 2.53 µM and a TGI of 8.29 µM. O=[N+]([O-])c1ccc(Sc2c3ccccc3nc3ccccc23)cn1 gave a TGI of 16.9 µM. Molecule C=CCn1c(SCC(=O)Nc2ccc(C(=O)/C=C/c3cc(OC)c(OC)c(OC)c3)cc2)nnc1-c1ccc(OC)cc1 has a GI50 of 2.25 µM and a TGI of 16.4 µM. Molecule Clc1nc(Cl)c2ncn(Cc3ccccc3Cn3cnc4c(Cl)nc(Cl)nc43)c2n1 has a GI50 of 1.9 µM and a TGI of 4.16 µM. COc1ccc(-c2ccc(NNC(=O)c3ccc(F)cc3)nn2)cc1OC gave a GI50 of 17.8 µM and a TGI of 99.3 µM. O=C(N/N=C/c1ccc(O)cc1O)c1cccnc1 showed a GI50 of 2.09 µM and a TGI of 43.5 µM. Cc1cc(NCCCCNc2ccnc3cc(Cl)ccc23)nc(Nc2ccc(C(=O)N3CCCCC3)cc2)n1 was tested, and the GI50 was 1.21 µM and the TGI was 3.03 µM. With c1ccc2c(c1)c1ccccc1c1ccccc21 the GI50 was > 100 µM and the TGI was > 100 µM. Cc1c2c(C(N)=O)nccc2c(C)c2c1c1ccccc1n2Cc1ccccc1 showed a TGI of 25.1 µM.
